Reference: patent publication US12371428B2 (Exelixis, Inc., priority 2019, dated 2025)

Legend:
[1] = target: Human KDR (residues 790-1356) (Homo sapiens (Human), UniProt P35968); assay: Human KDR kinase assay, HTRF KinEase (Example B-2); format: biochemical; settings: protocol of Example B-2 (other compounds)
In short: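 Ten compound concentrations (3% DMSO final) were pre-plated, then KDR (790-1356) with biotinylated peptide in Mg/Mn/DTT buffer was added; ATP at Km (4.0 μM) started a 40 min room-temperature reaction. Detection used Eu-TK antibody and SA-XL665 in EDTA buffer; activity normalized to DMSO and reference inhibitor, IC50 by logistic fit.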

[2] = target: Human MER (residues 528-999) (Homo sapiens (Human), UniProt Q12866); assay: Human Mer kinase assay, HTRF KinEase (Example C-2); format: biochemical; settings: protocol of Example C-2 (other compounds)
In short: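 Recombinant MER 528-999 (1 ng/well) in buffer with 5 mM MgCl2 and 1 mM DTT was reacted with biotinylated peptide and ATP at Km (40 μM) for 60 min at room temperature. EDTA stop with SA-XL665 and Eu3+ TK antibody, then 665/620 nm HTRF read; IC50 from 4-parameter fit.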

[3] = target: Human MET (residues 956-1390) (Homo sapiens (Human), UniProt P08581); assay: Human Met kinase assay, HTRF KinEase (Example D-2); format: biochemical; settings: protocol of Example D-2 (other compounds); read-out: c-Met IC50
In short: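 MET kinase domain (956-1390), 0.1 ng/well, in buffer with 5 mM MgCl2, 1 mM DTT and 1 mM MnCl2, phosphorylated a biotinylated peptide at ATP Km for 40 min at RT; 10 concentrations, 3% DMSO final. EDTA-stopped HTRF read after 60 min; IC50 from a 4-parameter logistic fit.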

[4] = target: Met (phospho-Met, HGF-stimulated PC-3 prostate cancer cells) (Homo sapiens (Human), UniProt P08581); assay: Met autophosphorylation ELISA in PC-3 cells (Example F); format: cell-based; settings: cellular activity; Met autophosphorylation ELISA in PC-3 cells; read-out: c-Met IC50
In short: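 Compounds were tested on HGF-stimulated PC-3 cells. After 24 h culture and 3 h serum starvation, cells got compound for 1 h and 100 ng/mL HGF for 10 min, and Met tyrosine phosphorylation was measured by ELISA.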

Met (phospho-Met, HGF-stimulated PC-3 prostate cancer cells), sequence (P08581 25-1390): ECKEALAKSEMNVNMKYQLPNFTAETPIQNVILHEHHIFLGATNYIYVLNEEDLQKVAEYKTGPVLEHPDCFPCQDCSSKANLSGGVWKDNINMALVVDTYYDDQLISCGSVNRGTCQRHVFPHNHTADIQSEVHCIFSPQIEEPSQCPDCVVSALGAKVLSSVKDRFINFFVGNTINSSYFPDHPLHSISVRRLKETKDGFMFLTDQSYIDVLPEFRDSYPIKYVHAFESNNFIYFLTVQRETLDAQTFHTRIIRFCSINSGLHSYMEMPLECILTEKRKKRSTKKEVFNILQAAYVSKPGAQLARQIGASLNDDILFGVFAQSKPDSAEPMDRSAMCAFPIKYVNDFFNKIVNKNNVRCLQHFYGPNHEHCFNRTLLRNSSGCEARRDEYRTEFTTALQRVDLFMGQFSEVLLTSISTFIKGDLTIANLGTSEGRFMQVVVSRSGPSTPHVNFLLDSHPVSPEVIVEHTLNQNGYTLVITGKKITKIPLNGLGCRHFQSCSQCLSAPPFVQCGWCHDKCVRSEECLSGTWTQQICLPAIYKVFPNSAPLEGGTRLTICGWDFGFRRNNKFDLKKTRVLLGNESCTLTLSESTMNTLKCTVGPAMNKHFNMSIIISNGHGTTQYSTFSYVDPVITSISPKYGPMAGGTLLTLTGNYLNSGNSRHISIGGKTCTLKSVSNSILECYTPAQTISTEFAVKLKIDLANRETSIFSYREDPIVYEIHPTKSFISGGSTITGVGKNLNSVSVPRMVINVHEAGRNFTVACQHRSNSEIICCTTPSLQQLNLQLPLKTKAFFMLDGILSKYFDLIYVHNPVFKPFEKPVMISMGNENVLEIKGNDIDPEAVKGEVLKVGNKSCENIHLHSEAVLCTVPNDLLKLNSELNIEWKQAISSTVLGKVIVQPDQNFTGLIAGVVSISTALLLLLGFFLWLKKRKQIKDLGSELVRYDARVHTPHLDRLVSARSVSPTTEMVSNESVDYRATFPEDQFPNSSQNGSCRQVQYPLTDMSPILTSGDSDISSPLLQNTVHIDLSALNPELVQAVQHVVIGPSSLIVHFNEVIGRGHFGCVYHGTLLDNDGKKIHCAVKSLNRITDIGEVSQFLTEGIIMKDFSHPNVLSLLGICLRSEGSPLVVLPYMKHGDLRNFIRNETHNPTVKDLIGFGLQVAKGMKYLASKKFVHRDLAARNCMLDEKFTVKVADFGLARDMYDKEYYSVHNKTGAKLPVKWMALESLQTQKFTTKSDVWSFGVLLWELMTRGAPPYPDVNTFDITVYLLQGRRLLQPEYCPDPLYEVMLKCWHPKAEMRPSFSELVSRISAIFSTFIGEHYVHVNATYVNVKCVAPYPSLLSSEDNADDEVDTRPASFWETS
Human MER (residues 528-999), sequence (Q12866 528-999): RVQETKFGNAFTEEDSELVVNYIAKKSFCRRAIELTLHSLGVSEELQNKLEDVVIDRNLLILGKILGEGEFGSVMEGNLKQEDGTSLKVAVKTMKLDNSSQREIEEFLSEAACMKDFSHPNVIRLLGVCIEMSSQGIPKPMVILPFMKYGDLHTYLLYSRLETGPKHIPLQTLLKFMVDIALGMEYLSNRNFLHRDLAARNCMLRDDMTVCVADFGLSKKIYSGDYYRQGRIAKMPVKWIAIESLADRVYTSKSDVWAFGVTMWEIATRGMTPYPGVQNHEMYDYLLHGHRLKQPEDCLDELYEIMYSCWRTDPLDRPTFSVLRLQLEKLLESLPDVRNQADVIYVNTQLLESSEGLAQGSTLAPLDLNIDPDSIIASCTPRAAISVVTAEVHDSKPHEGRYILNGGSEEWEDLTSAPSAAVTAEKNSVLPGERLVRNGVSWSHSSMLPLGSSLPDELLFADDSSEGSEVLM
Human MET (residues 956-1390), sequence (P08581 956-1390): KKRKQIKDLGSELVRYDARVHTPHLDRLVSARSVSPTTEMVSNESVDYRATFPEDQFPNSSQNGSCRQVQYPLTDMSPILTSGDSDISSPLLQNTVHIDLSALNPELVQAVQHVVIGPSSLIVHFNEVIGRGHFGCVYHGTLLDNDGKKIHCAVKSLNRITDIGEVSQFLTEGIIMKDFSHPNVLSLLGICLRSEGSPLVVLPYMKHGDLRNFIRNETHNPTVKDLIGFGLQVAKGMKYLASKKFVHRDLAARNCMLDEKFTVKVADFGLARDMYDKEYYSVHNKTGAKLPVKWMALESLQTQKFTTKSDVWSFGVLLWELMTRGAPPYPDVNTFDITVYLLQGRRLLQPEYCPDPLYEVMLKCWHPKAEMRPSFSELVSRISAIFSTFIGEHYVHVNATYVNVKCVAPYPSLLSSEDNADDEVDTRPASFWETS
Human KDR (residues 790-1356), sequence (P35968 790-1356): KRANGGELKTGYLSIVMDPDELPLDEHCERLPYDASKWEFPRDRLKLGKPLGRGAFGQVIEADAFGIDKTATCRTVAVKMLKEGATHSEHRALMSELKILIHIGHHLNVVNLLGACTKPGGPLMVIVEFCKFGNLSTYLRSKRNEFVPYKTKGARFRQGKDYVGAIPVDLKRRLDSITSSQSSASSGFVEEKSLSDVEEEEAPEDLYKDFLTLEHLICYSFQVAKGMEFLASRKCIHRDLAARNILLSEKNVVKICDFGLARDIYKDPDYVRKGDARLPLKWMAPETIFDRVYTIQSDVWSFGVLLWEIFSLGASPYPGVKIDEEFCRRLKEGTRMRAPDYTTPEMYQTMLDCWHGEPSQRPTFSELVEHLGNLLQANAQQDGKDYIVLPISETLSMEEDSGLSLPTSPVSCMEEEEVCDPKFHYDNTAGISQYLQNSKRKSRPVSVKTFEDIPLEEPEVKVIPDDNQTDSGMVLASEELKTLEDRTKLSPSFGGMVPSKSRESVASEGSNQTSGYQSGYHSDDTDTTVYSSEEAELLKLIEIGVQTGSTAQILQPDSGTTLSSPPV

| SMILES | IC50 [1] [nM] | IC50 [2] [nM] | IC50 [3] [nM] | IC50 [4] [nM] |
| --- | --- | --- | --- | --- |
| COc1cnc2c(Oc3ccc(NC(=O)c4c(C)ncc(-c5ccc(F)cc5)c4O)cc3F)ccnc2c1 [Compound 80, N-[3-Fluoro-4-[(7-methoxy-1,5-naphthyridin-4-yl)oxy]phenyl]-5-(4-fluorophenyl)-4-hydroxy-2-methylpyridine-3-carboxamide] | < 100 | < 100 | < 100 | < 100 |
| CCc1cnc2c(Oc3ccc(NC(=O)c4cnc(C)c(-c5ccc(F)cc5C)c4O)cc3F)ccnc2c1 [Compound 419, N-[4-[(7-ethyl-1,5-naphthyridin-4-yl)oxy]-3-fluorophenyl]-5-(4-fluoro-2-methylphenyl)-4-hydroxy-6-methylpyridine-3-carboxamide] | > 300 | < 100 | < 100 | < 100 |
| COc1cc2nccc(Oc3ccc(NC(=O)c4c5n(cc(-c6ccc(F)cc6)c4=O)CCC5)cc3F)c2cc1OC [Compound 409, N-[4-(6,7-dimethoxyquinolin-4-yl)oxy-3-fluorophenyl]-6-(4-fluorophenyl)-7-oxo-2,3-dihydro-1H-indolizine-8-carboxamide] | < 100 | < 100 | < 100 | < 100 |
| COc1ccc2nccc(Oc3ccc(NC(=O)c4ccc(C)n(-c5ccc(F)cc5)c4=O)cc3F)c2n1 [Compound 84, N-[3-Fluoro-4-[(6-methoxy-1,5-naphthyridin-4-yl)oxy]phenyl]-1-(4-fluorophenyl)-6-methyl-2-oxopyridine-3-carboxamide] | 100 to 300 | < 100 | < 100 | < 100 |

The next lines start with the values.

| IC50 [1] [nM] | IC50 [2] [nM] | IC50 [3] [nM] | IC50 [4] [nM] | SMILES |
| --- | --- | --- | --- | --- |
| < 100 | < 100 | < 100 | < 100 | COc1cc2nccc(Oc3ccc(NC(=O)c4cn(C)c(C)c(-c5ccc(F)cc5)c4=O)cc3)c2nc1OC [Compound 65, N-[4-[(6,7-Dimethoxy-1,5-naphthyridin-4-yl)oxy]phenyl]-5-(4-fluorophenyl)-1,6-dimethyl-4-oxopyridine-3-carboxamide] |
| 100 to 300 | < 100 | < 100 | < 100 | COCCOc1nc2c(Oc3ccc(NC(=O)c4cnc(C)c(-c5ccc(F)cc5)c4O)cc3F)ccnc2cc1C [Compound 436, N-[3-fluoro-4-[[6-(2-methoxyethoxy)-7-methyl-1,5-naphthyridin-4-yl]oxy]phenyl]-5-(4-fluorophenyl)-4-hydroxy-6-methylpyridine-3-carboxamide] |
| < 100 | < 100 | < 100 | < 100 | COc1cc2nccc(Oc3ccc(NC(=O)c4cnc(CO)c(-c5ccc(F)cc5)c4O)cc3F)c2nc1OC [Compound 71, N-[4-[(6,7-Dimethoxy-1,5-naphthyridin-4-yl)oxy]-3-fluorophenyl]-5-(4-fluorophenyl)-4-hydroxy-6-(hydroxymethyl)pyridine-3-carboxamide] |
| > 300 | < 100 | < 100 | < 100 | COc1cc2nccc(Oc3ccc(NC(=O)c4cn(-c5cnn(C(F)F)c5)cc(-c5ccc(F)cc5)c4=O)cc3F)c2nc1OC [Compound 60, 1-[1-(Difluoromethyl)pyrazol-4-yl]-N-[4-[(6,7-dimethoxy-1,5-naphthyridin-4-yl)oxy]-3-fluorophenyl]-5-(4-fluorophenyl)-4-oxopyridine-3-carboxamide] |
| 100 to 300 | < 100 | < 100 | < 100 | COc1cc2nccc(Oc3ccc(NC(=O)c4cnc(C)c(-c5ccc(F)cc5)c4O)cc3F)c2nc1OC(C)C [Compound 415, N-[3-fluoro-4-[(7-methoxy-6-propan-2-yloxy-1,5-naphthyridin-4-yl)oxy]phenyl]-5-(4-fluorophenyl)-4-hydroxy-6-methylpyridine-3-carboxamide] |
